Reference: patent US20120301468A1, “ANTI-MN ANTIBODIES AND METHODS OF USING SAME” (BAYER HEALTHCARE LLC, priority 2005, published 2012)
Read-outs that look alike come from different tables or passages of the source.

Experiments:
[1] = system: 13 other carbonic anhydrases; test: Binding to other carbonic anhydrases
MN-expressing MaTu cells = test: FACS cell binding, MaTu cells; format: cell-based, human
[2] = system: MN-expressing cells (PC3 mm2); test: Antibody internalization (Cellomics), PC3 mm2; format: cell-based, human
[3] = system: MN-expressing cells (PC3 mm2); test: Spindle formation / tubulin staining, Pc3 mm2; format: cell-based, human; conditions: tubulin stained with fluorescence labeled antibody
From the text: The cytotoxic drug MMAE delivered by 3ee9/MMAE is a tubulin inhibitor that prevents spindle formation during cell mitosis resulting in G2/M arrest. The tubulin is stained with florescence labeled antibody. […] These studies confirmed that the antibody drug conjugate 3ee9/MMAE kills cell through targeted tubulin disruption.

[4] = system: MaTu human mammary carcinoma xenograft; conditions: for tumors showing signs of re-growth: ˜3 months after cessation, 10 mice per group; for animals remained tumor-free: ˜90 days after cessation
Protocol: Anti-MN antibodies were conjugated to cytotoxic small molecules using protocols that are known in the art (e.g., Liu, et al., Proc. Natl. Acad. Sci. 93:8618-8623, 1996). Human mammary xenograft, MaTu cells were maintained as adherent cultures in RPMI supplemented with 10% FBS. Ncr nude mice (8-12 weeks of age) were inoculated subcutaneously in the right flank with 5×10^6 cells in 0.1 mL of 80% matrigel/20% HBSS. When tumors reached an average size of ˜180 mg (6 days), treatment was initiated. Monoclonal antibodies conjugated to cytotoxic small molecules were administered i.v. once every four days (Q4Dx3) at a dose of 10 mg/kg. Control mice were treated with PBS or an unconjugated monoclonal antibody. Daily examinations into the health status of each animal were conducted. Each experimental group consisted of 10 mice and the dosing volume was 0.1 mL/10 g body weight. The length and width of each tumor was measured by using an electronic caliper 2-3 times per week and tumor weights (mg) were calculated based on the formula of [length (mm)×width (mm)^2]/2. All data, including daily observations, obtained throughout the course of the study were documented. Tumor growth inhibition (TGI) was calculated as 1−T/C×100, where T=final tumor weights from a treated group, and C=final tumor weights from the control group.
The in vivo anti-tumor effect of 3ee9/MMAE was examined in 6 different human xenograft tumor models. These models were established through subcutaneous implantation of human tumor cells into female athymic NCr (nu/nu) mice (Taconic, N.Y.). The human tumor xenograft models evaluated included the MaTu human mammary carcinoma model, the HT-29 and Colo-205 human colo-rectal carcinoma (CRC) models, PC3MM2 prostate carcinoma model, the HCT-15 multi-drug resistant (P-gp) CRC model, and the MiaPaCa2 human pancreatic model. PBS was used as a vehicle, and dosing solutions were prepared fresh daily. The dosing volume was 0.1 mL/10 g (10 mL/kg).
The length and width of each tumor were measured using an electronic caliper 2-3 times per week, and tumor weights (mg) were calculated based on the formula of [length (mm)×width (mm)^2]/2. All data, including daily observations, obtained throughout the course of the study were documented in Anti-tumor Data Acquisition System (ADAS). […] Tumor growth inhibition (TGI) was calculated as (1-T/C)×100, where T=final tumor weights from a treated group after the last dose, and C=final tumor weights from the control group after the last dose. In addition, anti-tumor efficacy was measured as the incidence of responses (or responders or regressions) defined as tumors with ≦50% of their initial size. A minimum duration of 7 days is required for a response to be considered durable.
Human mammary xenograft, MaTu cells were maintained as adherent cultures in RPMI supplemented with 10% FBS. NCr nude mice (8-12 weeks of age) were inoculated subcutaneously in the right flank with 5×10^6 cells in 0.1 mL of 80% matrigel/20% HBSS. When tumors reached an average size of ˜180 mg (7 days), treatment was initiated. […] Control mice were treated with PBS or an un-conjugated monoclonal antibody at a dose of 10 mg/kg.
Daily examinations into the health status of each animal were conducted. Each experimental group consisted of 10 mice, and the dosing volume was 0.1 mL/10 g body weight. The length and width of each tumor was measured by using an electronic caliper 2-3 times per week, and tumor weights (mg) were calculated based on the formula of [length (mm)×width (mm)^2]/2. All data, including daily observations, obtained throughout the course of the study were documented. Tumor growth inhibition (TGI) was calculated as 1−T/C×100, where T=final tumor weights from a treated group, and C=final tumor weights from the control group.

[5] = system: PC3 mm2 human prostate tumor xenograft; test: PC3 mm2 subcutaneous xenograft model; format: in vivo, NCr nu/nu mice; conditions: for animals showing responses: PC3MM2
Protocol: The in vivo anti-tumor effect of 3ee9/MMAE was examined in 6 different human xenograft tumor models. These models were established through subcutaneous implantation of human tumor cells into female athymic NCr (nu/nu) mice (Taconic, N.Y.). […] PBS was used as a vehicle, and dosing solutions were prepared fresh daily. The dosing volume was 0.1 mL/10 g (10 mL/kg).
The length and width of each tumor were measured using an electronic caliper 2-3 times per week, and tumor weights (mg) were calculated based on the formula of [length (mm)×width (mm)^2]/2. […] Tumor growth inhibition (TGI) was calculated as (1-T/C)×100, where T=final tumor weights from a treated group after the last dose, and C=final tumor weights from the control group after the last dose. In addition, anti-tumor efficacy was measured as the incidence of responses (or responders or regressions) defined as tumors with ≦50% of their initial size. A minimum duration of 7 days is required for a response to be considered durable.
The anti-tumor activity of 3ee9/MMAE was next evaluated against human prostate (PC-3 mm2) and CRC (Colo-205) tumor xenografts. Female NCr nu/nu mice were implanted subcutaneously (s.c.) either with 5×10^6 PC3 mm2 or Colo-205 cells. Treatment was initiated when tumors were of an average size of approximately 125-150 mg. The general health of mice was monitored and recorded daily. Tumor dimensions and body weights were recorded twice a week starting with the first day of treatment.
In the PC3 mm2 and Colo-205 studies, 3ee9/MMAE was administered intravenously (i.v.) once every 4th day for a total of 3 injections (Q4Dx3) at doses of 1, 3, 10 and 30 mg/kg and 1.25, 2.5, 5 and 10 mg/kg, respectively.

[6] = system: HCT-15 multi-drug resistant (P-gp) CRC xenograft; test: HCT-15 multi-drug resistant xenograft model; format: in vivo, NCr nu/nu mice; conditions: HCT-15 MDR model
Protocol: To examine the effect of 3ee9/MMAE in a multi-drug resistance model, female NCr nu/nu mice were implanted subcutaneously (s.c.) with 5×10^6 HCT-15 cells. HCT-15 is a multi-drug resistant (MDR) line that over-expresses P-glycoprotein (P-gp). […] 3ee9/MMAE, Taxol, and Gemcitabine were administered when mice had established tumors with mean weight of ˜150 mg. Gemcitabine, a pyrimidine analog that is not a P-gp substrate was used as a positive control.

## 3ee9/MMAE: human anti-MN IgG1 antibody 3ee9 conjugated to Monomethylauristatin E (MMAE)
[1]
  binding to other carbonic anhydrases: no detectable binding
MN-expressing MaTu cells
  cell binding by FACS: bind to MN-expressing MaTu cells
[2]
  internalization: selectively internalized
[3]
  effect on spindle formation: fragmented fibers resulting from tubulin binding with MMAE and prevention of normal spindle formation
[4]; 60 mg/kg i.v. Q4Dx3
  body weight loss: ~20%
  lethality: 10%
[4]; MaTu tumor-bearing mice, i.v. Q4Dx3
  maximum tolerated dose (MTD): 60 mg/kg
[4]; MaTu xenograft
  therapeutic index (MTD divided by MED): ~96
[4]; MaTu, 0.625 mg/kg Q4Dx3
  tumor regression: No tumor regression
[4]; MaTu, 0.625 mg/kg Q4Dx3, end of dosing
  inhibition of tumor growth: 62%
[4]; MaTu, 1 mg/kg Q4Dx3
  time tumors remained stable after cessation of treatment: ~2 weeks
  tumors responsive to treatment: 30%
[4]; MaTu, 1 mg/kg i.v. Q4Dx3, end of dosing
  TGI: 67%
[4]; MaTu, 1.25 mg/kg Q4Dx3
  animals exhibiting tumor regressions: 80%
[4]; MaTu, 1.25 mg/kg Q4Dx3, end of dosing
  inhibition of tumor growth: 81%
[4]; MaTu, 2.5 mg/kg and higher Q4Dx3
  animals responded to treatment: 100%
[4]; MaTu, 3 mg/kg i.v. Q4Dx3, end of dosing
  TGI: 72%
[4]; MaTu, 3 mg/kg
  tumors showing signs of re-growth: 3 tumors
  animals remained tumor-free: 70%
[4]; MaTu, 10 mg/kg i.v. Q4Dx3, end of dosing
  TGI: 78%
[4]; MaTu, 10 mg/kg
  tumors showing signs of re-growth: 1 tumors
  animals remained tumor-free: 90%
[4]; MaTu, 1, 3 and 10 mg/kg i.v. Q4Dx3
  tolerability: well-tolerated at all doses examined
[4]; MaTu, 2.5, 5, 10, 30 and 60 mg/kg Q4Dx3
  inhibition of tumor growth: ~90%
[4]; MaTu, 3 and 10 mg/kg Q4Dx3
  animals responded: 100%
[4]; MaTu, i.v. Q4Dx3
  minimum efficacious dose (MED): 0.625 mg/kg
[4]; Table 4 profile
  In vivo activity: MED: 1 mg/kg
  In vivo activity: MTD: 60 mg/kg
[4]; all other treatment groups (0.625 to 30 mg/kg) Q4Dx3
  tolerability: well tolerated
[5]; PC3-mm2 human prostate xenograft model
  anti-tumor effects: anti-tumor effects were seen
[5]; 3 mg/kg
  animals showing responses: 20%
[5]; 10 and 30 mg/kg i.v. Q4Dx3
  animals showing responses: 100%
[5]; PC3 mm2 (1, 3, 10, 30 mg/kg) and Colo-205 (1.25, 2.5, 5, 10 mg/kg) studies, i.v. Q4Dx3
  tolerability: well tolerated at all doses evaluated
[6]
  anti-tumor effect: failed to produce any significant anti-tumor effect
